# Assay results: paper doi:10.1101/2024.05.30.596757v1 (biorxiv, 2024)
# Columns and labels:
# [1] = biological target: eGFP-53BP1 (Homo sapiens, UniProt Q12888); experiment: eGFP-53BP1 foci count per nucleus by confocal microscopy, DIvA cells; assay type: cell-based
# [2] = biological target: 53BP1 TTD (tandem tudor domain) (Homo sapiens, UniProt Q12888); experiment: SPR, OneStep gradient injections, kinetic fit with mass transport; assay type: binding
# 53BP1 TTD (tandem tudor domain), sequence (Q12888 1483-1606): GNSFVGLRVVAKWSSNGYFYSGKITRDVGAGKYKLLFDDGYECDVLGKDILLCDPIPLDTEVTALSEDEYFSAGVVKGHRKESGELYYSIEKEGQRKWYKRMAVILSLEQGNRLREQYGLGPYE
# eGFP-53BP1, sequence (Q12888 whole entry, the tested form may be a part): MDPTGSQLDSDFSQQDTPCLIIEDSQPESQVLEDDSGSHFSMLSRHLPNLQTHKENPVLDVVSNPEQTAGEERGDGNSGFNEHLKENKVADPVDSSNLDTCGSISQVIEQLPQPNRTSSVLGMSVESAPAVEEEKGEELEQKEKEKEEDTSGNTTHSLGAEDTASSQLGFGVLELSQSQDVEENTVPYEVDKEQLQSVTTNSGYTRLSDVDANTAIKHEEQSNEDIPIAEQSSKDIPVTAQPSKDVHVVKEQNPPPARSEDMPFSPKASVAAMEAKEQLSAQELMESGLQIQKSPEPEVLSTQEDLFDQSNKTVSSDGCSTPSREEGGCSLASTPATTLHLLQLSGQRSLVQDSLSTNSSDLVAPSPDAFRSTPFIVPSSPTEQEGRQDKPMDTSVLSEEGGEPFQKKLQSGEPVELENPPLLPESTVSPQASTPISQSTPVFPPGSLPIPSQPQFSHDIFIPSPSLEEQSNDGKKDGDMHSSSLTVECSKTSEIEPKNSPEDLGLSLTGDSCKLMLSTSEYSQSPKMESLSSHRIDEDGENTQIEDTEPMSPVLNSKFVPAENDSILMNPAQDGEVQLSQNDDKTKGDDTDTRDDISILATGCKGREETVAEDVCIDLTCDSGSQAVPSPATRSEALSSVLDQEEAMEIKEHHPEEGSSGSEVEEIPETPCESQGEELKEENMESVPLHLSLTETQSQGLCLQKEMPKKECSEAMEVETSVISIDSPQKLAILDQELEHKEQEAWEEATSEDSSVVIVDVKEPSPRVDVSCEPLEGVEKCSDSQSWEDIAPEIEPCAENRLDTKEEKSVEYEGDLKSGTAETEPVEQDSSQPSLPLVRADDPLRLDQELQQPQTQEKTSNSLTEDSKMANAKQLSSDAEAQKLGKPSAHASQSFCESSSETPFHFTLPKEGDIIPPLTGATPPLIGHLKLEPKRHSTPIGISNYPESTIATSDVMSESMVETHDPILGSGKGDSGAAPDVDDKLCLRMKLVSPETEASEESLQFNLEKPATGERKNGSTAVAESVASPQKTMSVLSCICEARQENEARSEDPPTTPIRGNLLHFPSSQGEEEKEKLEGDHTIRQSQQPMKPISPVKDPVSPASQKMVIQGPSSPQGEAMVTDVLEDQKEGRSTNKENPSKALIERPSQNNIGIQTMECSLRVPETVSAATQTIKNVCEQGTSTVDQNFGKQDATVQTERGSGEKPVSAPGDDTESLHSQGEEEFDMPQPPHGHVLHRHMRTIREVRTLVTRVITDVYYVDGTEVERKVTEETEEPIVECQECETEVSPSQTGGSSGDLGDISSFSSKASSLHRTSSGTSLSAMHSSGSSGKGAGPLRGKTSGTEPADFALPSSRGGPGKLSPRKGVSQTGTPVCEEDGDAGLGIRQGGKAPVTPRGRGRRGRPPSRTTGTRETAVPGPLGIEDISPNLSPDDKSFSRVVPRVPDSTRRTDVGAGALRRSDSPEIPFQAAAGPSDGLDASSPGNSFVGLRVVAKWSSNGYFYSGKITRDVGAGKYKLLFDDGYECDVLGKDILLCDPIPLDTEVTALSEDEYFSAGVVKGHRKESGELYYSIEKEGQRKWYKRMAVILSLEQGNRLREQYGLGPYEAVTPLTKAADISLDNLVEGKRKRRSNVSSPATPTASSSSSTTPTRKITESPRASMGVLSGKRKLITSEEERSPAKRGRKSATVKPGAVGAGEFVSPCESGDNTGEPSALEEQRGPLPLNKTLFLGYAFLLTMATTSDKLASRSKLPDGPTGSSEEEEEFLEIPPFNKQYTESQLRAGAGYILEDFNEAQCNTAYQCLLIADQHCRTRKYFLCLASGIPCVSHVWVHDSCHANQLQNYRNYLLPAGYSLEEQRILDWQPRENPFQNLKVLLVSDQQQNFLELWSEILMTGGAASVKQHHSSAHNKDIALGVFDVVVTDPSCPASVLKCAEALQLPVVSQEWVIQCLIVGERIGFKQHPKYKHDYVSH
compound,measurement,setting,value
"CCN1CCN(C(=O)c2ccc(Cn3nc(C)cc3C)cc2)CC1 [EoHR, (4-((3,5-dimethyl-1H-pyrazol-1-yl)methyl)phenyl)(4-ethylpiperazin-1-yl)methanone]",IC50,[1],13 ± 5 µM
same,Kd,[2],14 µM
